Results on four molecules are retold here after patent US20260021107A1, “STIMULATOR OF INTERFERON GENES AGONISTS” (INIMMUNE CORP., priority 2022, published 2026).

For one assay, the system named is THF-ISRE cells. Description: THF luciferase activity, primary (initial) screen in THF-ISRE cells. It is filed as cell-based, human. Conditions: inducible luciferase reporter signalling upon IRF3 activation, compounds 50 μM to 0.391 μM, 18 hours, luminescence. Here is the method:
(§1) STING molecules were screened to determine human STING pathway specificity. THF-ISRE, THF-ISRE STING knock-out (KO), and THF-ISRE TRIF/MAVS KO cell lines contain an inducible luciferase reporter construct that will signal upon IRF3 activation. THF-ISRE STING KO cell line only has the TRIF/MAVS pathway to activate IRF3. THF-ISRE TRIF/MAVS KO cell line uses only the STING pathway for IRF3 activation. Luciferase activity was determined by measuring luminescence.
(§2) The three cell lines were maintained in T-75 flasks with DMEM/High Glucose (Cytiva™, Logan, UT), Pen/Strep/Glutamine (Hyclone™, Logan, UT), and 10% heat inactivated FBS (Hyclone™, Logan, UT).
(§3) For primary screening, THF-ISRE cells were plated at a density of 15,000 cells/well in opaque flat bottom 96-well tissue culture plates. Cells incubated for 36 hours and treated with DMSO (Sigma™, St. Louis, MO) formulated compounds. Before treatment, cell media was changed to 2% FBS in DMEM with antibiotics. Compounds were serially diluted 2-fold, starting at 50 μM and ending at 0.391 μM. Luciferase activity was measured after 18 hours by addition of Steady-Glo Luciferase Assay System (Promega™, Madison, WI) at a 1:1 ratio and luminescence read by plate reader.

Another assay has as its system human STING pathway. Description: THF luciferase activity, secondary screen in THF-ISRE TRIF/MAVS KO cells (STING only). It is filed as cell-based. Conditions: only the STING pathway for IRF3 activation. The protocol:
as §1, §2, §3
The secondary screening used the same procedure as above with THF-ISRE STING KO and THF-ISRE TRIF/MAVS KO cells. If the compound was human STING specific, only THF-ISRE TRIF/MAVS KO cells would have luciferase activity.

On to `COc1cccc(F)c1CN1C(=O)CSc2cc(C(=O)NCc3c(F)cc(F)cc3F)ccc21` [INI-3067], for which the “luciferase activity (initial screen)” value with THF-ISRE cells was “positive luciferase activity”. Moreover, the “luciferase activity in TRIF/MAVS KO cells (STING pathway use)” value in the assay with human STING pathway is listed as “use the STING pathway for luciferase activity”.
For the molecule `CC1Sc2cc(C(=O)NCc3c(F)cc(F)cc3F)ccc2N(Cc2c(O)cccc2F)C1=O` (centres unmarked) [INI-3071], the “luciferase activity (initial screen)” value in the assay with THF-ISRE cells is recorded as “positive luciferase activity”. Further, in the assay on human STING pathway, the “luciferase activity in TRIF/MAVS KO cells (STING pathway use)” value is on record as “use the STING pathway for luciferase activity”.
The like results for `O=C(NCc1c(F)cc(F)cc1F)c1ccc2c(c1)SCC(=O)N2Cc1c(O)cccc1F` [INI-3069] were, in that order, “positive luciferase activity” and “use the STING pathway for luciferase activity”.
For the molecule `CC1Sc2cc(C(=O)NCc3ccco3)ccc2N(Cc2c(O)cccc2F)C1=O` (centres unmarked) [INI-3070], the “luciferase activity (initial screen)” value in the assay on THF-ISRE cells was “positive luciferase activity”. Also, the “luciferase activity in TRIF/MAVS KO cells (STING pathway use)” value in the assay on human STING pathway was “use the STING pathway for luciferase activity”.
